Format: physicochemical
Procedure: The specific experimental method was as follows. […] The chloroform solution was mixed with 0.5 ml of chloroform, from which 0.5 ml of diluent was taken and two-fold serial dilution was performed by using chloroform. Then 0.5 ml of a chloroform solution of paclitaxel (10 mg/ml) was added to the above-mentioned sample after the two-fold serial dilution, and then left in a hood to be naturally volatilized overnight. Crystal formation in the dried sample was observed and recorded.

castor oil
solubility of paclitaxel (crystal formation): +

Reference: US20220111056A1, “DRUG-LOADED EMULSION” (ZHEJIANG ZHIDA PHARMACEUTICAL CO., LTD., priority 2019, published 2022)
